Source: article PMC8780263, “Green by Design: Convergent Synthesis, Computational Analyses, and Activity Evaluation of New FXa Inhibitors Bearing Peptide Triazole Linking Units” (Pharmaceutics, 2021)
Read-outs that look alike come from different tables or passages of the source.

Tests used:
[1] = tested on: HeLa cells; test: Cell viability analysis, CCK-8 method, HeLa; type: cell-based, human; settings: 48 h; 10 mM, 100 μM, 10 μM, 100 nM, 10 nM
Experimental: (§1) The human cell lines (HEK293 and HeLa) applied in the cell viability assays were purchased from ATCC (Manassas, VA, USA). HEK293 and HeLa cell lines were cultivated in Dulbecco’s modified Eagle medium, supplemented with 10% fetal bovine serum, 100 units/mL of penicillin and […] of streptomycin and kept at 37 °C in a humidified atmosphere containing 5% CO2. A 100-μL aliquot of adherent cells was used to seed 96-well cell culture plates at 25,000 cells/well and allowed to adhere for 16 h prior to compound addition. Cells were treated with each compound in DMEM containing 10% FBS for 48 h. Subsequently, 10 μL of Cell Counting Kit-8 reagent (CCK-8; Sigma-Aldrich, Merck KGaA, Darmstadt Germany) was added into each well and incubated for 4 h at 37 °C in a humidified atmosphere containing 5% CO2. The absorbance measurement detected the cell viability at 450 nm in a Synergy H1 microplate reader (Biotek Instruments, Winooski, VT, USA). All experiments were performed in triplicate.
(§2) Cell viability assays were performed with HeLa and HEK293 cells using the CCK-8 method. Compounds 8a, 8k, 8l and 8p were assayed with decreasing concentrations: 10 mM (1), 100 μM (2), 10 μM (3), 100 nM (4) and 10 nM (5) (Figure 6).
(§3) Figure 6 Effect of the selected compounds on cell viability using the CCK-8 assay in (A) HeLa and (B) HEK93 cell lines. Concentrations used were 10 mM (1), 100 μM (2), 10 μM (3), 100 nM (4), and 10 nM (5). The upper and lower lines define ± 2 SD limits from the average value of control wells treated only with the vehicle (DMSO 2%). All values are means ± SD (n = 3). SD: standard deviation.

[2] = tested on: HEK293 cells; test: Cell viability analysis, CCK-8 method, HEK293; type: cell-based, human; settings: 48 h; 10 mM, 100 μM, 10 μM, 100 nM, 10 nM
Experimental: as §1, §2, §3

[3] = target: FXa enzyme (Bos taurus, UniProt P00743); test: FXa in vitro inhibition assay (fluorometric SensoLyte Factor Xa Assay Kit); settings: for inhibition at 100 µM: read-out: %Inhibition FXa, inhibition percentage at 100 μM; for %Inhibition FXa: inhibition percentage at 100 μM
Sequence of FXa enzyme (P00743 234-492 limits assumed): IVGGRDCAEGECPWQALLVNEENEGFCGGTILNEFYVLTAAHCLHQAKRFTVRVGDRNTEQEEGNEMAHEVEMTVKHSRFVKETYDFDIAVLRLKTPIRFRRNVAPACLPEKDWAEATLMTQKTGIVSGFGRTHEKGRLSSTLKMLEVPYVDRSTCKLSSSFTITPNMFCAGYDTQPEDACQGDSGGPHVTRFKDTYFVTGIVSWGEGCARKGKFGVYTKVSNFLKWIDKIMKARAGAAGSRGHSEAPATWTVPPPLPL
Sequence of FXa enzyme (P00743 41-180 partner limits assumed): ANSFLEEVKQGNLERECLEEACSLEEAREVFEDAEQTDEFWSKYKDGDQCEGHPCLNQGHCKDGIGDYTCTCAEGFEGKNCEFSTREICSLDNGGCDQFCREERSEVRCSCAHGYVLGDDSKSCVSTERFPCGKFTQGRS
Experimental: The FXa inhibition capacities of the newly synthesized molecules were evaluated using the SensoLyte® 520 Factor Xa Assay Kit.

inhibition at 100 µM [3] | melting point | Structure (SMILES) | also measured
24% | 195 to 196 °C | CC(C)(C)OC(=O)N1CCN(c2ccc(NC(=O)Cn3cc(-c4ccccc4)nn3)cc2F)C(=O)C1 [Compound 8b] | –
17% | 254 to 255 °C | O=C(Cn1cc(-c2ccccc2)nn1)Nc1ccc(N2CCOCC2=O)c(F)c1 [Compound 8c] | –
33% | 276 to 277 °C | O=C(Cn1cc(-c2ccccc2)nn1)Nc1ccc(N2CCSCC2=O)c(F)c1 [Compound 8d] | –
17% | – | O=C(Cn1cc(-c2ccc(F)cc2)nn1)Nc1ccc(N2CCCCC2=O)c(F)c1 [Compound 8e] | –
– | – | CC(C)(C)OC(=O)N1CCN(c2ccc(NC(=O)Cn3cc(-c4ccc(F)cc4)nn3)cc2F)C(=O)C1 [Compound 8f] | %Inhibition FXa [3]: 44%
36% | 273 to 274 °C | O=C(Cn1cc(-c2ccc(F)cc2)nn1)Nc1ccc(N2CCOCC2=O)c(F)c1 [Compound 8g] | –
25% | 266 to 267 °C | O=C(Cn1cc(-c2ccc(F)cc2)nn1)Nc1ccc(N2CCSCC2=O)c(F)c1 [Compound 8h] | –
29% | 302 to 303 °C | O=C(Cn1cc(-c2ccc(Cl)cc2)nn1)Nc1ccc(N2CCCCC2=O)c(F)c1 [Compound 8i] | –
– | – | CC(C)(C)OC(=O)N1CCN(c2ccc(NC(=O)Cn3cc(-c4ccc(Cl)cc4)nn3)cc2F)C(=O)C1 [Compound 8j] | %Inhibition FXa [3]: 23%
29% | 300 to 301 °C | O=C(Cn1cc(-c2ccc(Br)cc2)nn1)Nc1ccc(N2CCCCC2=O)c(F)c1 [Compound 8m] | –
– | – | CC(C)(C)OC(=O)N1CCN(c2ccc(NC(=O)Cn3cc(-c4ccc(Br)cc4)nn3)cc2F)C(=O)C1 [Compound 8n] | %Inhibition FXa [3]: 22%
37% | 302 to 303 °C | O=C(Cn1cc(-c2ccc(Br)cc2)nn1)Nc1ccc(N2CCOCC2=O)c(F)c1 [Compound 8o] | –
21% | 301 to 302 °C | Cc1ccc(-c2cn(CC(=O)Nc3ccc(N4CCCCC4=O)c(F)c3)nn2)cc1 [Compound 8q] | –
27% | 204 to 205 °C | Cc1ccc(-c2cn(CC(=O)Nc3ccc(N4CCN(C(=O)OC(C)(C)C)CC4=O)c(F)c3)nn2)cc1 [Compound 8r] | –
37% | 282 to 283 °C | Cc1ccc(-c2cn(CC(=O)Nc3ccc(N4CCOCC4=O)c(F)c3)nn2)cc1 [Compound 8s] | –
31% | 285 to 286 °C | Cc1ccc(-c2cn(CC(=O)Nc3ccc(N4CCSCC4=O)c(F)c3)nn2)cc1 [Compound 8t] | –
– | – | CCOC(=O)c1ccc(OC(=O)CCCCCN=C(N)N)cc1.CS(=O)(=O)O [Gabexate mesylate, reference compound] | IC50 ([3]; FXa, dilution series 1 nM to 100 μM, triplicates): 0.34 ± 0.1 µM; %Inhibition FXa [3]: 93%

Structure (SMILES) | inhibition at 100 µM [3] | melting point | also measured
O=C(Cn1cc(-c2ccccc2)nn1)Nc1ccc(N2CCCCC2=O)c(F)c1 [Compound 8a] | ≥ 50% | – | toxicity in HeLa cells (cell viability, CCK-8) [1]: no signs of toxicity; cell mortality in HEK-293 cells (cell viability, CCK-8) [2]: did not show any cell mortality; IC50 [3]: 41.2 ± 1.2 µM
O=C(Cn1cc(-c2ccc(Cl)cc2)nn1)Nc1ccc(N2CCOCC2=O)c(F)c1 [Compound 8k] | ≥ 50% | – | toxicity in HeLa cells (cell viability, CCK-8) [1]: no signs of toxicity; cell mortality in HEK-293 cells (cell viability, CCK-8) [2]: did not show any cell mortality; IC50 [3]: 76.2 ± 16.9 µM
O=C(Cn1cc(-c2ccc(Cl)cc2)nn1)Nc1ccc(N2CCSCC2=O)c(F)c1 [Compound 8l] | ≥ 50% | – | toxicity in HeLa cells (cell viability, CCK-8) [1]: no signs of toxicity; cell mortality in HEK-293 cells (cell viability, CCK-8) [2]: did not show any cell mortality; IC50 [3]: 52.9 ± 5.5 µM
O=C(Cn1cc(-c2ccc(Br)cc2)nn1)Nc1ccc(N2CCSCC2=O)c(F)c1 [Compound 8p] | ≥ 50% | – | toxicity in HeLa cells (cell viability, CCK-8) [1]: no signs of toxicity; cell mortality in HEK-293 cells (cell viability, CCK-8) [2]: did not show any cell mortality; IC50 [3]: 17.2 ± 0.8 µM
